Test results: US8829007B2 (priority 2009, dated 2014)
Like-named read-outs stand apart in the source and are kept apart here.

Columns and labels:
[1] = tested on: influenza A virus (A/PR/8/34); assay: microbe, parasite or virus in culture; format: cell-based; settings: read-out: IC50
[2] = tested on: A/PR/8/34 influenza virus; assay: microbe, parasite or virus in culture; format: cell-based
[3] = mean all, MDCK cells infected with A/PR/8/34, cell protection (CPE)
[4] = mean all, bDNA viral RNA in MDCK cells infected with A/PR/8/34, read-out: EC50
[5] = Influenza A virus, PR/8, MDCK, mean all, MDCK cells infected with A/PR/8/34, cell protection (CPE)
[6] = Influenza A virus, PR/8, MDCK, mean all, bDNA viral RNA in MDCK cells infected with A/PR/8/34, read-out: EC50

COP(=O)(CN1CCC[C@H](Nc2nc(-c3c[nH]c4ncc(Cl)cc34)ncc2F)C1)OC [Compound 690]
IC50 ([1]; Influenza A virus, PR/8, MDCK): < 5 µM
EC50 ([2]; Influenza A virus, PR/8, MDCK): < 5 µM

CC(C)(C)c1nc(-c2c[nH]c3ncc(Cl)cc23)nc(NC2CCCCC2(C)C(=O)O)c1F (stereo not drawn) [Compound 691]
IC50 [1, 3]: < 5 µM
EC50 [2, 4]: < 5 µM

O=C(O)C1CCCC(Nc2nc(-c3c[nH]c4ncc(Cl)cc34)ncc2F)C1 (stereo not drawn) [Compound 696]
IC50 [1, 3]: < 5 µM
EC50 [2, 4]: < 5 µM

CC(C)OC(=O)NC1CCCC(Nc2nc(-c3c[nH]c4ncc(Cl)cc34)ncc2F)C1 (stereo not drawn) [Compound 697]
IC50 [1, 3]: < 5 µM
EC50 [2, 4]: < 5 µM

CCCOC(=O)NC1CCCC(Nc2nc(-c3c[nH]c4ncc(Cl)cc34)ncc2F)C1 (stereo not drawn) [Compound 698]
IC50 [1, 3]: < 5 µM
EC50 [2, 4]: < 5 µM

CC(C)COC(=O)NC1CCCC(Nc2nc(-c3c[nH]c4ncc(Cl)cc34)ncc2F)C1 (stereo not drawn) [Compound 699]
IC50 [1, 3]: < 5 µM
EC50 [2, 4]: < 5 µM

CCOC(=O)NC1CCCC(Nc2nc(-c3c[nH]c4ncc(Cl)cc34)ncc2F)C1 (stereo not drawn) [Compound 700]
IC50 [1, 3]: < 5 µM
EC50 [2, 4]: < 5 µM

CC#CCOC(=O)NC1CCCC(Nc2nc(-c3c[nH]c4ncc(Cl)cc34)ncc2F)C1 (stereo not drawn) [Compound 701]
IC50 [1, 3]: < 5 µM
EC50 [2, 4]: < 5 µM

C#CCOC(=O)NC1CCCC(Nc2nc(-c3c[nH]c4ncc(Cl)cc34)ncc2F)C1 (stereo not drawn) [Compound 702]
IC50 [1, 3]: < 5 µM
EC50 [2, 4]: < 5 µM

COCC(=O)NC1CCCC(Nc2nc(-c3c[nH]c4ncc(F)cc34)ncc2F)C1 (stereo not drawn) [Compound 703]
IC50 [1, 3]: < 5 µM
EC50 [2, 4]: < 5 µM

O=C(NC1CCCC(Nc2nc(-c3c[nH]c4ncc(F)cc34)ncc2F)C1)C1CCCCO1 (stereo not drawn) [Compound 704]
IC50 [1, 3]: < 5 µM
EC50 [2, 4]: < 5 µM

COC(=O)NC1CCCC(Nc2nc(-c3c[nH]c4ncc(F)cc34)ncc2F)C1 (stereo not drawn) [Compound 705]
IC50 [1, 3]: < 5 µM
EC50 [2, 4]: < 5 µM

COCC(=O)NC1CCCC(Nc2nc(-c3c[nH]c4ncc(Cl)cc34)nc(C(C)(C)O)c2F)C1 (stereo not drawn) [Compound 715]
IC50 [1, 3]: < 5 µM
EC50 [2, 4]: < 5 µM

COC(=O)NC1CCCC(Nc2nc(-c3c[nH]c4ncc(Cl)cc34)nc(C(C)(C)O)c2F)C1 (stereo not drawn) [Compound 716]
IC50 [1, 3]: < 5 µM
EC50 [2, 4]: < 5 µM

OCC(O)C[C@@]1(O)CCCC(Nc2nc(-c3c[nH]c4ncc(Cl)cc34)ncc2F)C1 (stereo partly drawn) [Compound 718]
IC50 [1, 5]: < 5 µM
EC50 [2, 6]: < 5 µM

O=C(NCC1CC1)C1CCCC(Nc2nc(-c3c[nH]c4ncc(Cl)cc34)ncc2F)C1 (stereo not drawn) [Compound 719]
IC50 [1, 3]: < 5 µM
EC50 [2, 4]: < 5 µM

COC1CN(C(=O)C2CCCC(Nc3nc(-c4c[nH]c5ncc(Cl)cc45)ncc3F)C2)C1 (stereo not drawn) [Compound 720]
IC50 [1, 3]: < 5 µM
EC50 [2, 4]: < 5 µM

CCOC(=O)C(=O)N(C(=O)OC(C)(C)C)C1CC2CC(C(=O)OC)C1C2 (stereo not drawn) [Compound 721]
IC50 [1, 3]: < 5 µM
EC50 [2, 4]: < 5 µM

CC(C)(C)C(=O)NC1CCCC(Nc2nc(-c3c[nH]c4ncc(Cl)cc34)ncc2F)C1 (stereo not drawn) [Compound 723]
IC50 [1, 3]: < 5 µM
EC50 [2, 4]: < 5 µM

N#CCC(=O)NC1CCCC(Nc2nc(-c3c[nH]c4ncc(Cl)cc34)ncc2F)C1 (stereo not drawn) [Compound 724]
IC50 [1, 3]: < 5 µM
EC50 [2, 4]: < 5 µM

CN(C)CC(=O)NC1CCCC(Nc2nc(-c3c[nH]c4ncc(Cl)cc34)ncc2F)C1 (stereo not drawn) [Compound 725]
IC50 [1, 3]: < 5 µM
EC50 [2, 4]: < 5 µM

O=C(NC1CCCC(Nc2nc(-c3c[nH]c4ncc(Cl)cc34)ncc2F)C1)C1CCC1 (stereo not drawn) [Compound 726]
IC50 [1, 3]: < 5 µM
EC50 [2, 4]: < 5 µM

CC(C)(C)CC(=O)NC1CCCC(Nc2nc(-c3c[nH]c4ncc(Cl)cc34)ncc2F)C1 (stereo not drawn) [Compound 728]
IC50 [1, 3]: < 5 µM
EC50 [2, 4]: < 5 µM

O=C(CN1CCCCC1)NC1CCCC(Nc2nc(-c3c[nH]c4ncc(Cl)cc34)ncc2F)C1 (stereo not drawn) [Compound 729]
IC50 [1, 3]: < 5 µM
EC50 [2, 4]: < 5 µM

O=C(CN1CCOCC1)NC1CCCC(Nc2nc(-c3c[nH]c4ncc(Cl)cc34)ncc2F)C1 (stereo not drawn) [Compound 730]
IC50 [1, 3]: < 5 µM
EC50 [2, 4]: < 5 µM

O=C(O)C1CCC(Nc2nc(-c3c[nH]c4ncc(Cl)cc34)ncc2F)CC1 (stereo not drawn) [Compound 731]
IC50 [1, 3]: > 10 µM
EC50 [2, 4]: > 3.3 µM

CNC(=O)C[C@]1(O)CCCC(Nc2nc(-c3c[nH]c4ncc(Cl)cc34)ncc2F)C1 (stereo partly drawn) [Compound 751]
IC50 [1, 5]: < 5 µM
EC50 [2, 6]: < 5 µM
